The results in this text go back to ChEMBL document CHEMBL4346717, “1,2,4-Triazole-quinoline/quinolone hybrids as potential anti-bacterial agents” (Eur J Med Chem, 2019).

The structures appear in SMILES notation. In brackets after ≈: the same amount, converted by molar mass.

One experiment deals with Aspergillus niger. Briefly: Antifungal activity against Aspergillus niger assessed as zone of inhibition at 100 ug/ml. To be noted: read-out: IZ. Type of experiment: functional.
The next experiment has as its system Aspergillus fumigatus. In words: Antifungal activity against Aspergillus fumigatus assessed as zone of inhibition at 100 ug/ml. It is filed as functional. To be noted: read-out: IZ.
In experiment [1] the test system is Escherichia coli. Briefly: Antibacterial activity against Escherichia coli. Type of experiment: functional.
Experiment [2] concerns Pseudomonas aeruginosa. Briefly: Antibacterial activity against Pseudomonas aeruginosa. Type of experiment: functional.
Experiment [3] deals with Yersinia pseudotuberculosis. In words: Antibacterial activity against Yersinia pseudotuberculosis. Type of experiment: functional.
In experiment [4] the test system is Staphylococcus aureus. Briefly: Antibacterial activity against Staphylococcus aureus. Type of experiment: functional.
In the next experiment the test system is Enterococcus faecalis. Briefly: Antibacterial activity against Enterococcus faecalis. Type of experiment: functional.
The test system of experiment [5] is Bacillus cereus. Briefly: Antibacterial activity against Bacillus cereus. Type of experiment: functional.
Experiment [6] deals with Mycolicibacterium smegmatis. In words: Antibacterial activity against Mycobacterium smegmatis. It is filed as functional.
Experiment [7] concerns Staphylococcus epidermidis. Briefly: Antibacterial activity against Staphylococcus epidermidis assessed as zone of inhibition at 100 ug/ml. The settings on record: read-out: IZ.
For experiment [8], the system named is Bacillus cereus. In words: Antibacterial activity against Bacillus cereus assessed as zone of inhibition at 100 ug/ml. Type of experiment: functional. The settings on record: read-out: IZ.
Experiment [9] relates to Escherichia coli. Briefly: Antibacterial activity against Escherichia coli assessed as zone of inhibition at 100 ug/ml. To be noted: read-out: IZ.
Experiment [10] has as its system Pseudomonas aeruginosa. Briefly: Antibacterial activity against Pseudomonas aeruginosa assessed as zone of inhibition at 100 ug/ml. The settings on record: read-out: IZ.
For experiment [11], the system named is Staphylococcus aureus. In words: Antibacterial activity against methicillin-resistant Staphylococcus aureus. Type of experiment: functional.
The subject of experiment [12] is Escherichia coli. In words: Antibacterial activity against multi drug-resistant Escherichia coli. Type of experiment: functional.
The test system of experiment [13] is Staphylococcus aureus. In words: Antibacterial activity against Staphylococcus aureus after 3 to 7 days by cup diffusion method. It is filed as functional. The settings on record: Staphylococcus aureus; read-out: MIC.
Experiment [14] deals with Bacillus subtilis. In words: Antibacterial activity against Bacillus subtilis after 3 to 7 days by cup diffusion method. The settings on record: Bacillus subtilis; read-out: MIC. It is filed as functional.
The subject of experiment [15] is Escherichia coli. Briefly: Antibacterial activity against Escherichia coli after 3 to 7 days by cup diffusion method. It is filed as functional. To be noted: Escherichia coli; read-out: MIC.
The subject of experiment [16] is Pseudomonas aeruginosa. In words: Antibacterial activity against Pseudomonas aeruginosa after 3 to 7 days by cup diffusion method. It is filed as functional. The settings on record: Pseudomonas aeruginosa; read-out: MIC.
The test system of experiment [17] is Mycolicibacterium phlei. Briefly: Antibacterial activity against Mycobacterium phlei clinical isolate after 3 to 7 days by cup diffusion method. The settings on record: Mycolicibacterium phlei; read-out: MIC. Type of experiment: functional.
In experiment [18] the test system is Aggregatibacter actinomycetemcomitans. In words: Antibacterial activity against Aggregatibacter actinomycetemcomitans ATCC 29524 after 3 to 7 days by cup diffusion method. The settings on record: Aggregatibacter actinomycetemcomitans, ATCC 29524; read-out: MIC. It is filed as functional.
Experiment [19] relates to Staphylococcus aureus. In words: Antibacterial activity against Staphylococcus aureus assessed as zone of inhibition at 10 mg/ml after 3 to 7 days by cup diffusion method. It is filed as functional. To be noted: read-out: IZ.
Experiment [20] relates to Bacillus subtilis. Briefly: Antibacterial activity against Bacillus subtilis assessed as zone of inhibition at 10 mg/ml after 3 to 7 days by cup diffusion method. It is filed as functional. To be noted: read-out: IZ.
Experiment [21] concerns Escherichia coli. In words: Antibacterial activity against Escherichia coli assessed as zone of inhibition at 10 mg/ml after 3 to 7 days by cup diffusion method. To be noted: read-out: IZ. It is filed as functional.
Experiment [22] concerns Pseudomonas aeruginosa. Briefly: Antibacterial activity against Pseudomonas aeruginosa assessed as zone of inhibition at 10 mg/ml after 3 to 7 days by cup diffusion method. Type of experiment: functional. To be noted: read-out: IZ.
In experiment [23] the test system is Mycolicibacterium phlei. In words: Antibacterial activity against Mycobacterium phlei clinical isolate assessed as zone of inhibition at 10 mg/ml after 3 to 7 days by cup diffusion method. It is filed as functional. The settings on record: read-out: IZ.
The subject of experiment [24] is Aggregatibacter actinomycetemcomitans. Briefly: Antibacterial activity against Aggregatibacter actinomycetemcomitans ATCC 29524 assessed as zone of inhibition at 10 mg/ml after 3 to 7 days by cup diffusion method. To be noted: read-out: IZ. Type of experiment: functional.
The target of the next experiment is DNA gyrase (Escherichia coli, UniProt P0AES4+P0AES6). Briefly: Inhibition of Escherichia coli DNA gyrase super-coiling activity using pBR322 DNA as substrate after 30 mins by fluorescence assay. It is filed as protein-complex assay.

Turning to `OC(Cn1cncn1)(Cn1cncn1)c1ccc(F)cc1F` [FLUCONAZOLE], the zone of inhibition at 100 µg/mL amounted to 29 mm in the experiment on Aspergillus niger and 26 mm with Aspergillus fumigatus.

Take `CCn1c(N2CCN(c3ccc([N+](=O)[O-])cc3)CC2)nn(CN2CCN(c3cc4c(cc3F)c(=O)c(C(=O)O)cn4CC)CC2)c1=S`: the MIC (in the experiment on Escherichia coli [1]; in the experiment with Pseudomonas aeruginosa [2]; in [3]; against Staphylococcus aureus [4]; against Enterococcus faecalis; with Bacillus cereus [5]) was 0.03 to 0.99 µg/mL (≈ 0.0451 to 1.49 µM) in each case. For the same compound, in [6], the MIC was in the range of 0.03 to 0.99 µg/mL (≈ 0.0451 to 1.49 µM).

For `CCn1cc(C(=O)O)c(=O)c2cc(F)c(N3CCN(Cn4nc(N5CCN(c6ccc([N+](=O)[O-])cc6)CC5)n(Cc5ccccc5)c4=S)CC3)cc21`, the MIC (in the experiment with Escherichia coli [1]; in the experiment on Pseudomonas aeruginosa [2]; in [3]; in the experiment on Staphylococcus aureus [4]; in the experiment on Enterococcus faecalis; against Bacillus cereus [5]) was 0.03 to 0.99 µg/mL (≈ 0.0412 to 1.36 µM) each time. The same compound yielded an MIC in experiment [6] of 0.03 to 0.99 µg/mL (≈ 0.0412 to 1.36 µM).

Regarding `O=C(O)c1cn(C2CC2)c2cc(N3CCNCC3)c(F)cc2c1=O` [CIPROFLOXACIN], the zone of inhibition at 100 µg/mL (in [7]; in the experiment on Bacillus cereus [8]; in the experiment on Escherichia coli [9]; in the experiment on Pseudomonas aeruginosa [10]) was 23 to 29 mm throughout. For the same compound, the MIC in the experiment with Staphylococcus aureus [11] and with Escherichia coli [12] was 0.25 to 8 µg/mL (≈ 0.754 to 24.1 µM) throughout.

With `CCn1cc(C(=O)O)c(=O)c2cc(F)c(N3CCN(Cn4nc(N5CCN(c6ccc([N+](=O)[O-])cc6)CC5)n(Cc5ccccc5)c4=O)CC3)cc21`, the MIC (against Escherichia coli [1]; with Pseudomonas aeruginosa [2]; in [3]; in the experiment with Staphylococcus aureus [4]; in the experiment with Enterococcus faecalis; in the experiment on Bacillus cereus [5]) was 0.03 to 0.99 µg/mL (≈ 0.0421 to 1.39 µM) in each case. This compound returned an MIC in experiment [6] of 0.03 to 0.99 µg/mL (≈ 0.0421 to 1.39 µM).

With `CCn1cc(C(=O)O)c(=O)c2cc(F)c(N3CCN(Cn4nc(N5CCN(c6ccc([N+](=O)[O-])cc6)CC5)n(-c5ccccc5)c4=S)CC3)cc21`, the MIC (against Escherichia coli [1]; with Pseudomonas aeruginosa [2]; in [3]; against Staphylococcus aureus [4]; in the experiment with Enterococcus faecalis; with Bacillus cereus [5]) was 0.03 to 0.99 µg/mL (≈ 0.042 to 1.39 µM) each time. The MIC in experiment [6] was 0.03 to 0.99 µg/mL (≈ 0.042 to 1.39 µM).

Turning to `CC1(C)S[C@@H]2[C@H](NC(=O)[C@H](N)c3ccccc3)C(=O)N2[C@H]1C(=O)O` [AMPICILLIN], the MIC (against Escherichia coli [1]; in the experiment with Pseudomonas aeruginosa [2]; in experiment [3]; in the experiment with Staphylococcus aureus [4]; against Enterococcus faecalis; with Bacillus cereus [5]) was 10 to 128 µg/mL (≈ 28.6 to 366 µM) each time. The compound further came in with an MIC in experiment [6] of 10 to 128 µg/mL (≈ 28.6 to 366 µM).

Consider `CCn1cc(-c2nc(NC(=O)c3ccccc3)n[nH]2)c(=O)c2cc(Br)c(C)nc21`, for which the MIC (in the experiment with Staphylococcus aureus [13]; with Bacillus subtilis [14]; with Escherichia coli [15]; with Pseudomonas aeruginosa [16]; with Mycolicibacterium phlei [17]; in [18]) was 3.68 to 6.3 µM (≈ 1.67 to 2.86 µg/mL) in each case. The zone of inhibition at 10000 µg/mL (in the experiment with Staphylococcus aureus [19]; in the experiment on Bacillus subtilis [20]; with Escherichia coli [21]; in the experiment on Pseudomonas aeruginosa [22]; in the experiment on Mycolicibacterium phlei [23]; in experiment [24]) was 20 to 40 mm throughout. For the same compound, the half-inhibitory concentration (IC50) (commonly the midpoint of a concentration-inhibition curve) on DNA gyrase is 4.28 µM.

As for `CCn1cc(C(=O)O)c(=O)c2cc(F)c(N3CCN(Cn4nc(N5CCN(c6ccc([N+](=O)[O-])cc6)CC5)n(-c5ccccc5)c4=O)CC3)cc21`, the MIC (against Escherichia coli [1]; with Pseudomonas aeruginosa [2]; in experiment [3]; against Staphylococcus aureus [4]; against Enterococcus faecalis; in the experiment with Bacillus cereus [5]) was 0.03 to 0.99 µg/mL (≈ 0.043 to 1.42 µM) throughout. The compound further returned an MIC in experiment [6] of 0.03 to 0.99 µg/mL (≈ 0.043 to 1.42 µM).

As to `CCn1cc(C(=O)O)c(=O)c2cc(F)c(N3CCN(Cn4nc(N5CCN(c6ccc([N+](=O)[O-])cc6)CC5)n(-c5ccc(F)cc5)c4=S)CC3)cc21`, the MIC (against Escherichia coli [1]; in the experiment on Pseudomonas aeruginosa [2]; in experiment [3]; in the experiment with Staphylococcus aureus [4]; against Enterococcus faecalis; against Bacillus cereus [5]) was 0.03 to 0.99 µg/mL (≈ 0.041 to 1.35 µM) each time. In experiment [6], this compound registered an MIC of 0.03 to 0.99 µg/mL (≈ 0.041 to 1.35 µM).
